Assay results: patent US20080318246A1, “Deeply quenched enzyme sensors” (The Albert Einstein College of Medicine of Yeshiva …, priority 2007, published 2008)
Square brackets hold non-standard residues; d marks the D form. Peptide text beside a SMILES is read from it. * marks the point of attachment. Acetyl(1-pyrenyl) = O=C(Cc1ccc2ccc3cccc4ccc1c2c34)*; Carminic acid = quencher bound covalently; Ala(Pyr) = not defined here; Dap = NC[C@H](N)C(=O)O

What was measured:
peptide P2 = test: Apparent KD of lead quencher dyes with peptide P2 (quenching of pyrene fluorescence); type: binding; conditions: with 5 μM pyrene-labeled peptide P2, 100 mM Tris HCl pH 7.5, inner filter corrected
Description: KD values were acquired for the set of the ten lead quenchers with peptide P2, in order to obtain a target range for the quencher:peptide ratios to be employed in the subsequent assays (vide infra). These apparent KD values were determined using the quenching of pyrene fluorescence as a barometer of peptide/quencher complex stability. […] An inner filter effect (at high dye concentrations) was corrected as previously described (Levine (1977) Clin. Chem. 23:2292-301).

[1] = biological target: phosphorylated P5 peptide; test: Apparent KD of quencher with phosphorylated P5 peptide; type: binding
Description: (§1) Varying concentrations of 10 dyes (FIG. 2 Panel B), ranging from 0.5-500 μM, were added to 5 μM pyrene-labeled P2 peptide in 100 mM Tris HCl pH 7.5 buffer (96 well plates). […] After correcting for the inner filter effect, the percentage of quench was plotted against the concentration of the dye. A nonlinear regression analysis fit of the data to the rectangular hyperbola model using the Sigma Plot version 8.02 software was used to obtain apparent KD values.

peptide P5 = test: Apparent KD of lead quencher/peptide pair, peptide P5; type: binding
Description: as §1

PKA [2] = biological target: T1, PKA (Mus musculus, UniProt P05132); test: Control: phosphorylation-induced fluorescence change of pyrene peptides without quenching dye, with 14-3-3τ; type: biochemical, murine; parameters: made in house; conditions: absence of quenching dye, ATP, 5 μM peptide
PKA [3] = biological target: T1, PKA; test: Fluorescence increase of covalently quenched peptides P13, P14 upon phosphorylation by PKA; type: biochemical; conditions: for change in fluorescence upon phosphorylation by PKA: in the absence of 14-3-3
Description: Pyrene-substituted peptides P13 (FIG. 15 Panel A, SEQ ID NO:21) and P14 (FIG. 15 Panel B, SEQ ID NO:22) were synthesized. […] The assay was performed with a total volume of 200 μL and was initiated with the addition of PKA enzyme. […]

peptide P9 = test: Apparent KD of lead quencher/peptide pair, peptide P9; conditions: read-out: Apparent KD; with peptide P9
Description: as §1

Row | Compound | Kd (peptide P2) [µM] | % Fluorescence Enhancement (PKA [2]) [%] | also measured
1 | Cc1cc(-c2ccc(/N=N/c3ccc4c(S(=O)(=O)O)cc(S(=O)(=O)O)c(N)c4c3O)c(C)c2)ccc1/N=N/c1ccc2c(S(=O)(=O)O)cc(S(=O)(=O)O)c(N)c2c1O [D3, Evans Blue] | 2.8 ± 0.8 | – | –
2 | Nc1c(S(=O)(=O)O)cc(Nc2ccc(Nc3nc(Cl)nc(Nc4cccc(S(=O)(=O)O)c4)n3)c(S(=O)(=O)O)c2)c2c1C(=O)c1ccccc1C2=O [D6, Reactive Blue 2] | 19.6 ± 3.4 | – | –
3 | O=[N+]([O-])c1ccc2c(N=Nc3ccc4ccccc4c3O)c(O)cc(S(=O)(=O)[O-])c2c1.[Na+] [D18, Eriochrome Black T] | 14.3 ± 3.3 | – | –
4 | Nc1ccc(N=Nc2ccc(-c3ccc(N=Nc4c(S(=O)(=O)[O-])cc5cc(S(=O)(=O)[O-])c(N=Nc6ccccc6)c(O)c5c4N)cc3)cc2)c(N)c1.[Na+].[Na+] [D34, Chlorazol Black E] | 7.7 ± 1.5 | – | –
5 | O=S(=O)([O-])c1ccc(N=Nc2ccc(N=Nc3c(O)c(S(=O)(=O)[O-])cc4cc(S(=O)(=O)[O-])ccc34)c(S(=O)(=O)[O-])c2)cc1.[Na+].[Na+].[Na+].[Na+] [D42, Ponceau S] | 11.2 ± 2.7 | – | –
6 | O=C([O-])c1c(Cl)c(Cl)c(Cl)c(Cl)c1-c1c2cc(I)c(=O)c(I)c-2oc2c(I)c([O-])c(I)cc12.[Na+].[Na+] [D43, Rose Bengal] | 7.5 ± 1.6 | – | Kd [1]: 0.21 ± 0.04 µM; Kd (peptide P5; with peptide P5): 0.4 ± 0.03 µM; Kd (peptide P5; with unphosphorylated P5 peptide): 0.4 ± 0.03 µM
7 | O=C(O)c1nn(-c2ccc(S(=O)(=O)O)cc2)c(O)c1N=Nc1ccc(S(=O)(=O)O)cc1 [D47, Tartrazine] | 15 ± 2.1 | – | –
8 | Cc1cc(-c2ccc(/N=N/c3c(S(=O)(=O)O)cc4cc(S(=O)(=O)O)cc(N)c4c3O)c(C)c2)ccc1/N=N/c1c(S(=O)(=O)O)cc2cc(S(=O)(=O)O)cc(N)c2c1O [D48, Trypan Blue] | 11.9 ± 3.6 | – | –
9 | CC(=O)NCC(=O)N[C@@H](CCCNC(=N)N)C(=O)N[C@H](C(=O)NCC(=O)N[C@@H](CCCNC(=N)N)C(=O)N[C@@H](CCCNC(=N)N)C(=O)N[C@@H](CNC(=O)Cc1ccc2ccc3cccc4ccc1c2c34)C(=O)N[C@@H](CO)C(=O)N[C@@H](Cc1ccc(O)cc1)C(=O)N1CCC[C@H]1C(N)=O)[C@@H](C)O [P2, Ac-GRTGRRDap(Pyr)SYP-amide] (Ac-GRTGRR[Dap](Acetyl(1-pyrenyl))SYP-NH2) | – | 51 | –
10 | C[C@@H](O)[C@H](NC(=O)[C@H](CCCNC(=N)N)NC(=O)CNC(=O)CCCCCNC(=O)Cc1ccc2ccc3cccc4ccc1c2c34)C(=O)NCC(=O)N[C@@H](CCCNC(=N)N)C(=O)N[C@@H](CCCNC(=N)N)C(=O)N[C@@H](Cc1ccccc1)C(=O)N[C@@H](CO)C(=O)N[C@@H](Cc1ccc(O)cc1)C(=O)N1CCC[C@H]1C(N)=O [P9] | – | 48 | –
11 | Ac-GRDap(Pyr)GRRFSYP-amide [P4] | – | 40 | –
12 | Ac-GRTDap(Pyr)RRFSYP-amide [P3] | – | 19 | –
13 | Ac-GRTGRRFSDap(Pyr)P-amide [P1] | – | 0 | –
14 | AcGAla(Pyr)TGRRDap(Carminic acid)SLPA-amide (Ac-G[Ala(Pyr)]TGRR[Dap](Carminic acid)SLPA-NH2; reading uncertain) [P14] | – | – | change in fluorescence upon phosphorylation by PKA (PKA [3]): No significant change in fluorescence
15 | AcGAla(Pyr)TGRRDap(Reactive Blue 2)SLPA-amide [P13] | – | – | change in fluorescence upon phosphorylation by PKA (PKA [3]): No significant change in fluorescence; increase in fluorescence upon phosphorylation by PKA (PKA [3]; in the presence of 14-3-3τ (2.1 μM)): 1.5-2.3 fold
16 | Aniline Blue WS [D27] | 18.1 ± 2.6 | – | Kd (peptide P9): 0.6 ± 0.03 µM
